Values quoted from earlier work, collected in patent publication US20130316000A1, “COMPOSITIONS AND METHODS FOR TREATMENT OF IRRITABLE BOWEL SYNDROME WITH 5-AMINOSALICYLATE” (priority 2012, published 2013).

- concentration detected in human breast milk: low concentrations
Structure (SMILES): Nc1ccc(O)c(C(=O)O)c1 [mesalamine, 5-aminosalicylic acid]
